Measurements from publication PMC3762901, “Cyclic Peptide Inhibitors of the β-Sliding Clamp in Staphylococcus aureus” (PLoS ONE, 2013).
“And” between values parts separate entries of the source, which are not always exact repeats. Equal entries are not always repeated. Where two headings read alike, the source gives them in different places. Ends that are not written are not given here. Peptide text beside a SMILES is read from it.

Tests used:
S. aureus = assay type: cell-based, Staphylococcus aureus
Procedure: (§1) The antibacterial activities of the purified peptides were determined against Staphylococcus epidermidis and S. aureus. […] We can conclude that some but not all of the identified cyclic peptides are able to penetrate the bacterial membrane to find their intracellular target. […] As expected none of the peptides isolated had any activity towards E. coli, whereas they inhibited growth of B. subtilis, another gram positive bacterium (data not shown).

[1] = system: S. aureus DnaN-DnaN interaction (β-sliding clamp dimerization); test: Bacterial two-hybrid (BTH) β-galactosidase assay of DnaN-DnaN interaction; assay type: cell-based, Staphylococcus aureus; conditions: for Ability to interfere with DnaN dimerization after reduction to 8-mers: cyclic 8-mers with the sequence SXXXXXXG expressed intracellularly, not shown; for Reduction of DnaN-DnaN interaction when produced intracellularly: cyclic peptides expressed in E. coli, Fig. 3
Procedure: The library was screened for peptides able to disrupt DnaN-DnaN interaction of the Staphylococcus replisome by transforming into the R-BTH strain SC01 containing interacting Cya fusion proteins. Cells were plated on plates containing 5-FOA and 1 mM IPTG to induce expression of the cyclic peptides. We readily identified clones where expressed peptides restored cell viability in the presence of 5-FOA (Fig. 3A). To initially assess the activity of the selected peptides we determined their ability to reduce DnaN-DnaN interaction in the original two hybrid system.
Figure 3 Identification of peptides that interfere with DnaN-DnaN interaction. […] After screening of our SICLOPPS library, growth was restored in 7 clones.A. (B) The cyclic peptides identified in (A) were expressed in the original bacterial two-hybrid strain (BTH101) containing T18:DnaN and DnaN:T25 fusion plasmids and the level of β-galactosidase activity was determined as described in Materials and Methods.
Bacterial two-hybrid assay was performed as described previously. Derivatives of plasmids pUT18 and p25N encoding replication proteins were constructed by cloning PCR-amplified DNA fragments in frame with the T25 and T18 fragments of cya. T18 and T25 fusions were transformed into BTH101, and plated on plates containing 40 μg/ml of 5-bromo-4-chloro-indolyl-β-D-galactoside (X-gal) and relevant antibiotics. […] For β-galactosidase assays, cells were grown exponentially at 30°C in LB supplemented with 0.5 mM IPTG, and β-galactosidase activities were measured as described by.

[2] = system: DNA replication in S. aureus strain 8325-4; test: DNA synthesis, incorporation of 3H-thymidine; assay type: cell-based, Staphylococcus aureus; conditions: 50 μg/ml peptide; LB, 37°C; TCA precipitate, scintillation counting; repeated 3 times
Procedure: (§2) In order to test the direct effects of peptides III-5 and III-6 on DNA replication in S. aureus, strain 8325-4 was grown exponentially at 37°C in LB medium. Incorporation of ^3H-thymidine into the DNA was determined at various times after addition of 50 μg/ml of peptides III-5 or III-6. […] Protein synthesis, determined as incorporation of ^35S-methionine, was unaffected by peptide addition for at least 180 minutes (Fig. S1) which is well after the onset of DNA synthesis inhibition. Therefore the DNA replication inhibition is not a consequence of a more general effect on protein synthesis, and we conclude that peptide III-5 and III-6 inhibits replication by interfering with the dnaN encoded β-clamp.
Figure 5 Peptides III-5 and III-6 Inhibit DNA replication. […] Samples were taken at the indicated time-points and incorporation of ^3H into DNA was measured by liquid scintillation counting of TCA precipitated material. […]
For measuring DNA and protein synthesis, S. aureus strain 8325−4 was grown exponentially at 37°C in LB supplemented with 0.2 ml ^3H-thymidine (20 Ci/mmol,1 mCi/ml; Perkin Elmer Inc.) and uridine (50 μg/ml). […] The incorporation of ^3H into DNA was determined using a 1450 MicroBeta TriLux Microplate and Scintillation and Luminiscence counter (Perkin Elmer Inc.).

[3] = system: S. aureus or S. epidermidis; assay type: cell-based
Text: In agreement with this none of these peptides were particularly hydrophobic or cationic (Table 4). […] This could be tested by construction of deletion mutants lacking one or more of these permeases. We synthesized and tested linear counterparts of the active peptides III-5, III-6 and III-7. […] Increased antibacterial activity of peptides due to circularization has previously been described.

[4] = system: Protein synthesis in S. aureus strain 8325-4; test: Protein synthesis, incorporation of 35S-methionine; assay type: cell-based, Staphylococcus aureus; conditions: 50 μg/ml peptide; for at least 180 minutes; repeated 3 times
Procedure: as §2
S. aureus strain 8325-4 was grown exponentially in LB supplemented with ^35S-methionine. At T=0 peptide III-5 (grey triangles) or III-6 (green squares) was added to a final concentration of 50 μg/ml. Addition of buffer (red filled circles) served as control. Samples were taken at the indicated time-points and incorporation of ^35S into protein was measured by liquid scintillation counting of TCA precipitated material. The experiment was repeated 3 times with similar result. The result from one experiment is shown.

S. epidermidis = assay type: cell-based, Staphylococcus epidermidis; conditions: for Potency against S. epidermidis compared with S. aureus: cyclic peptides, data not shown
Procedure: as §1

S. aureus strain 8325-4 [5] = test: Growth (colony forming units) of S. aureus with or without DnaN overproduction after peptide addition; assay type: cell-based, Staphylococcus aureus; conditions: 40 μg/ml peptide, LB, 37°C, repeated 4 times; for Bacterial growth of uninduced cultures after peptide addition: 8 hours duration, colony forming units; for Bacterial growth of cultures overproducing DnaN after peptide addition: dnaN induced with 10 μM CdCl2 3 hours before (pSC141)
Procedure: To ensure that the antibacterial effects of peptides III-5 and III-6 were the result of direct interaction of these peptides with the β-clamp, we decided to overproduce DnaN in S. aureus cells. The dnaN gene was cloned under control of the cadmium induclible pCAD promoter of plasmid pCN51 [37]. Cells were grown exponentially at 37°C in LB medium and 3 hours prior to peptide addition expression of dnaN was induced by addition of 10 μM CdCl2. At time T = 0 peptides III-5 or III-6 were added to a final concentration of 40 μg/ml which is very close to the MIC value for both of these peptides (Fig. 4).
Figure 4 Overproduction of DnaN in S. aureus relieves the growth inhibition imposed by peptides III-5 and […]. S. aureus strain 8325-4 containing either the vector plasmid pCN51 (black filled squares) or plasmid pSC141 (grey triangles) was grown exponentially at 37°C in LB medium supplemented with 10 μg/ml erythromycin. CdCl2 was added to all cultures to a final concentration of 10 μM to induce overproduction of DnaN from pSC141 three hours prior to peptide addition. At T = 0, 40 μg/ml of peptide III-5 (middle panel) or III-6 (bottom panel) was added to the cultures. The number of colony forming units was determined by plating. The experiment were repeated 4 times with similar results.

S. aureus strain 8325-4 [6] = test: Fluorescence microscopy with DAPI staining (cell size, DNA content); assay type: cell-based, Staphylococcus aureus; conditions: 50 μg/ml; LB, 37°C
Text: The effect of peptides III-5 and III-6 on cell size and DNA content was visualized by fluorescence microscopy. […] A likely explanation is that peptide III-6, through its inhibitory effect on DNA synthesis, also results in an inability for cells to divide. Similar observations have been made for E. coli where failure to complete chromosome replication result in division inhibition and filamentation.
Figure 7 Peptide III-6 affect S. aureus cell size, morphology and DNA content. S. aureus strain 8325−4 was grown exponentially at 37°C in LB medium. […] Cells were stained with DAPI prior to fluorescence microscopy (Materials and Methods).
S. aureus strain 8325-4 or B. subtilis strain 168 was grown exponentially at 37°C in LB. […] The cells were stained with the live/dead stain according to the manufacturer. Phase-contrast and fluorescence images were acquired using a Leica DM5000B microscope with a×100 HCX PL APO NA 1.4 objective and a Leica DFC350FX cooled charge-coupled device camera controlled through FW4000 software (version 1.2.1; Leica Microsystems).

[7] = molecular target: DnaN (β), β-sliding clamp of S. aureus (S. aureus) (UniProt P0A024)
Sequence of UniProt P0A024 (P0A024 whole entry): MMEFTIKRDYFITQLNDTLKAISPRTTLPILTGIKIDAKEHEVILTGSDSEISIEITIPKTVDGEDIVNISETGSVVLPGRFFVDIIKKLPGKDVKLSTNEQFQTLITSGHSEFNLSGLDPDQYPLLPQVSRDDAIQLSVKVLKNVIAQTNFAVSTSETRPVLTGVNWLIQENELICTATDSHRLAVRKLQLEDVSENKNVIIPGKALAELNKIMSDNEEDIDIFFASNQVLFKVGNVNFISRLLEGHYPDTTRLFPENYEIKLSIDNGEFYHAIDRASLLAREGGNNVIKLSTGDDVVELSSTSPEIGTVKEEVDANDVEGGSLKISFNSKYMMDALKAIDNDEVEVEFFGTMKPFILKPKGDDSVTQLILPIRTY

CRGHVWVD [linear III-7]
MIC for linear peptide (S. aureus): > 560 µg/mL

CC(C)C[C@@H]1NC(=O)[C@H](Cc2ccccc2)NC(=O)[C@H](C(C)C)NC(=O)[C@H](CCCNC(=N)N)NC(=O)[C@H](CS)NC(=O)[C@H](CS)NC(=O)CNC(=O)[C@H](CS)NC1=O [III-5] (cyclo(CRVFLCGC))
Ability to interfere with DnaN dimerization after reduction to 8-mers [1]: retaining their ability to interfere with DnaN dimerization
Reduction of DnaN-DnaN interaction when produced intracellularly [1]: efficient in reducing DnaN-DnaN interaction
MIC for cyclic peptide (S. aureus; cyclic 8-mer CRXXXXXX, determined for S. aureus, highest concentration tested 100 μg/ml): 50 µg/mL
MIC for cyclic peptide (molar) (S. aureus; cyclic 8-mer CRXXXXXX, determined for S. aureus, value in brackets): 57 µM
Accumulation of DNA (3H-thymidine incorporation) [2]: severely reduced accumulation of DNA
MIC values (range given for the three active cyclic peptides) ([3]; cyclic peptides, summary over S. aureus (III-5, III-6) and S. epidermidis (III-7)): 20−50 μg/ml
Protein synthesis (35S-methionine incorporation) [4]: unaffected
Potency against S. epidermidis compared with S. aureus (S. epidermidis): somewhat more potent against S. epidermidis
Bacterial growth of uninduced cultures after peptide addition (S. aureus strain 8325-4 [5]): cessation of bacterial growth
Bacterial growth of cultures overproducing DnaN after peptide addition (S. aureus strain 8325-4 [5]): continued growth

CC(C)[C@@H]1NC(=O)[C@H](Cc2c[nH]c3ccccc23)NC(=O)[C@H](C(C)C)NC(=O)[C@H](Cc2c[nH]cn2)NC(=O)CNC(=O)[C@H](CCCNC(=N)N)NC(=O)[C@H](CS)NC(=O)[C@H](CC(=O)O)NC1=O [III-7] (cyclo(CRGHVWVD))
Ability to interfere with DnaN dimerization after reduction to 8-mers [1]: retaining their ability to interfere with DnaN dimerization
Reduction of DnaN-DnaN interaction when produced intracellularly [1]: efficient in reducing DnaN-DnaN interaction
MIC values (range given for the three active cyclic peptides) [3]: 20−50 μg/ml

CC(C)C[C@H](NC(=O)[C@H](Cc1ccccc1)NC(=O)[C@@H](NC(=O)[C@H](CCCNC(=N)N)NC(=O)[C@@H](N)CS)C(C)C)C(=O)N[C@@H](CS)C(=O)NCC(=O)N[C@@H](CS)C(=O)O [linear III-5] (H-CRVFLCGC-OH)
MIC for linear peptide (S. aureus): > 560 µg/mL

CRSQGLFK [linear III-6]
MIC for linear peptide (S. aureus): > 560 µg/mL

CC(C)C[C@H](NC(=O)[C@@H](NC(=O)[C@H](Cc1ccccc1)NC(=O)[C@H](CC(C)C)NC(=O)[C@H](Cc1c[nH]c2ccccc12)NC(=O)[C@H](CS)NC(=O)[C@H](CCCNC(=N)N)NC(=O)[C@@H](N)CS)C(C)C)C(=O)O [linear IV-N8] (H-CRCWLFVL-OH)
MIC for linear peptide (S. epidermidis): >1124 ^4 (>1.08) μg/ml

cyclo(CRCWLFVL) (cysteine pairing not given here) [IV-N8, cyclic 8-mer CRCWLFVL synthesized via FMOC SPPS]
Ability to interfere with DnaN dimerization after reduction to 8-mers [1]: retaining their ability to interfere with DnaN dimerization
MIC for cyclic peptide (S. epidermidis; cyclic 8-mer CRXXXXXX, determined for S. epidermidis, highest concentration tested 100 μg/ml): > 100 µg/mL

CC(C)C[C@@H]1NC(=O)CNC(=O)[C@H](CCC(N)=O)NC(=O)[C@H](CO)NC(=O)[C@H](CCCNC(=N)N)NC(=O)[C@H](CS)NC(=O)[C@H](CCCCN)NC(=O)[C@H](Cc2ccccc2)NC1=O [III-6] (cyclo(CRSQGLFK))
Ability to interfere with DnaN dimerization after reduction to 8-mers [1]: retaining their ability to interfere with DnaN dimerization
Reduction of DnaN-DnaN interaction when produced intracellularly [1]: efficient in reducing DnaN-DnaN interaction
Accumulation of DNA (3H-thymidine incorporation) [2]: severely reduced accumulation of DNA
MIC values (range given for the three active cyclic peptides) [3]: 20−50 μg/ml
Protein synthesis (35S-methionine incorporation) [4]: unaffected
Potency against S. epidermidis compared with S. aureus (S. epidermidis): somewhat more potent against S. epidermidis
Cell size (S. aureus strain 8325-4 [6]): increased cell size
DNA distribution between cells (DAPI staining) (S. aureus strain 8325-4 [6]): uneven DNA distribution between cells
Bacterial growth of uninduced cultures after peptide addition (S. aureus strain 8325-4 [5]): cessation of bacterial growth
Bacterial growth of cultures overproducing DnaN after peptide addition (S. aureus strain 8325-4 [5]): continued growth

CC(C)C[C@@H]1NC(=O)[C@H](CO)NC(=O)[C@H](CCC(=O)O)NC(=O)[C@H](Cc2ccccc2)NC(=O)[C@H]([C@@H](C)O)NC(=O)[C@H](CO)NC(=O)[C@H](CCCNC(=N)N)NC(=O)[C@H](CS)NC1=O [III-8] (cyclo(CRSTFESL))
Reduction of DnaN-DnaN interaction when produced intracellularly [1]: efficient in reducing DnaN-DnaN interaction
MIC for cyclic peptide (S. aureus): > 100 µg/mL

purified cyclic peptide III-6 (CRSQGLFK)
MIC for cyclic peptide, determined for S. aureus [7]: 50 μg/ml and 54 μM

purified cyclic peptide III-5 (CRVFLCGC)
MIC for cyclic peptide, determined for S. aureus [7]: 50 μg/ml and 57 μM
